{"source": "patent US10758584B2", "about": "“Topical formulation for promoting wound healing” (Oneness Biotech Co. LTD, priority 2016, dated 2020)", "test": "clinical", "conditions": "human, in vivo", "procedure": "[…]. The PA and CA extracts in the topical formulation were prepared according to the methods described herein. The topical formulation is cream-based and further comprises cetostearyl alcohol (about 1.0-10% by weight, for example, about 3.5-6.5% by weight), white petrolatum and liquid petrolatum 350 cps (about 5%-30% by weight in total, for example, about 5-15% by weight in total), methyl paraben and propyl paraben (about 0.005% to 0.2% by weight in total, for example, 0.005-0.2% by weight in total), emulsifiers such as Span® 60 and Tween® 60 (about 0.5-10% by weight in total, for example, about 0.5-5% by weight in total), and one or more solvent such as propylene glycol (about 2-20% by weight, for example, about 4-10% by weight). The extracts were formulated in a cream-based topical formulation that additionally contains liquid petrolatum, propylene glycol, cetyl stearyl alcohol, white petrolatum, Span® 60, Tween® 60, propyl paraben, methyl paraben, and water.\nA total of 12 patients completed the study. Each subject received one dose of the cream formulation on Day 1 followed by the blood sampling collection, then twice per day from Day 2 to Day 13, and a further blood sampling collection was scheduled on Day 14 after the final dose. […]."}
{"compound": "COc1ccc(-c2cc(=O)c3c(O)c(OC)c(OC)cc3o2)cc1", "note": "[salvigenin]", "values": [{"measurement": "concentration at 1 day", "value": "≤ 0.0124", "unit": "ng/mL"}, {"measurement": "concentration at 14 day", "value": "≤ 0.017", "unit": "ng/mL"}, {"measurement": "number of patients with detectable plasma concentrations", "setting": "1 day", "value": 2}, {"measurement": "number of patients with detectable plasma concentrations", "setting": "14 day", "value": 4}]}
